Patent US8895727B2, “Method for preparation of fluorine-18-labeled flumazenil using diaryliodonium salt precursor” (priority 2011, dated 2014)

Assay: Stability of diaryliodonium salt precursors under heating and base conditions (HPLC of by-products I-mazenil and H-mazenil)
Type: physicochemical
Settings: for relative instability of precursor (stability of 8f set forth to be 1.00): 150° C., 15 min, K2.2.2./K2CO3 in dimethylformamide, without fluorine-18, ratio relative to 8f (FIG. 6)
Method: Contrary to the expectation that the diaryliodonium salt precursors (8b to 8e) could be labeled at higher yields than precursor 8a thanks to their higher electron densities, a lower labeling yield of fluorine18 was detected for them at high temperatures in the presence of a base. This might be accounted by the significance of the stability of the precursors. To verify this, the precursors were analyzed for stability in the […] to examine the reactivity of each precursor. In the following Reaction Scheme 2, the degradation of each diaryliodonium salt precursor in the presence of base under a heating condition is illustrated. As shown, two compounds I-mazenil (9) and H-mazenil (10) are formed, and their concentrations reflect the stability of the diaryliodonium salt precursor.
The diaryliodonium salt precursors whose aromatic rings are richer in electron density, compared to phenyl-mazenil-iodonium salt (8a), are more apt to be affected by the reaction conditions for aromatic fluorination with fluorine-18. […] To examine the selectivity and stability of the diaryliodonium salts, the production of the by-products I-mazenil (9) and H-mazenil(10) which are degraded from the precursors due to their instability in a condition free of fluorine-18 was analyzed using HPLC. […]
After each diaryliodonium salt precursor was thermally treated 150° C. for 15 min in the presence of kryptofix2.2.2./potassium carbonate (K2.2.2./K2CO3) in dimethylformamide, without fluorine-18, measurement was made of the concentrations of 1-mazenil (9) and H-mazenil (10) to evaluate the stability of each precursor (FIG. 6). In addition, the labeling reactivity of the diaryliodonium salt precursors into [19F]flumazenil was assessed by reacting them with cesium fluoride at 90° C. for 120 min in dimethylformamide (FIG. 7). […]

For CCOC(=O)c1ncn2c1CN(C)C(=O)c1cc([I+]c3ccccc3)ccc1-2.Cc1ccc(S(=O)(=O)[O-])cc1 [Precursor 8a, ethyl 8-phenyl(iodonium tosylate)-5,6-dihydro-5-methyl-6-oxo-4H-imidazo[1,5-a][1,4]benzodiazepine-3-carboxylate], the “relative instability of precursor (stability of 8f set forth to be 1.00)” value was 1.11.

For CCOC(=O)c1ncn2c1CN(C)C(=O)c1cc([I+]c3ccc(C)cc3)ccc1-2.Cc1ccc(S(=O)(=O)[O-])cc1 [Precursor 8f, ethyl 8-(4-methylphenyl)(iodonium tosylate)-5,6-dihydro-5-methyl-6-oxo-4H-imidazo[1,5-a][1,4]benzodiazepine-3-carboxylate], the “relative instability of precursor (stability of 8f set forth to be 1.00)” value was 1.00 and the “stability among the diaryliodonium salt precursors” value (potassium carbonate and 150° C., similar results with TBAHCO3 and TBAOH (FIG. 6)) was “the most stable”.
